# Data published in the supplement of paper PMC10307832.
# Legend:
# Assay in all cases: relative viability (nuclei count vs DMSO), 5 days (fraction); higher = more cells survive
# [1] = compound: CC(C)(C)c1cc(NC(=O)Nc2ccc(-c3cn4c(n3)sc3cc(OCCN5CCOCC5)ccc34)cc2)no1 [Quizartinib] + CC(C)C[C@H](NC(=O)[C@H](Cc1ccccc1)NC(=O)c1cnccn1)B(O)O [Bortezomib] (partner 0.002 µM)
# Procedure, shortened: (§1)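 One day after seeding in 1536-well plates, lung cancer cell lines were dosed by pin tool. Dosing was either single-drug or a fixed anchor-drug dose plus five library-drug doses (not always all listed) in √10 steps. After 5 days, nuclei were stained in one fix-and-stain step and counted on 4× images, and relative viability is the nuclei count of treated wells over that of vehicle wells, given as the median of duplicate plates.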
# [2] = compound: CC(C)(C)c1cc(NC(=O)Nc2ccc(-c3cn4c(n3)sc3cc(OCCN5CCOCC5)ccc34)cc2)no1 [Quizartinib] + CS(=O)(=O)CCNCc1ccc(-c2ccc3ncnc(Nc4ccc(OCc5cccc(F)c5)c(Cl)c4)c3c2)o1 [Lapatinib] (partner 2 µM)
# Procedure, shortened: as §1
# [3] = compound: CC(C)(C)c1cc(NC(=O)Nc2ccc(-c3cn4c(n3)sc3cc(OCCN5CCOCC5)ccc34)cc2)no1 [Quizartinib] + Cc1cc(Nc2cc(N3CCN(C)CC3)nc(Sc3ccc(NC(=O)C4CC4)cc3)n2)n[nH]1 [Tozasertib] (partner 0.1 µM)
# Procedure, shortened: as §1
# [4] = compound: CC(C)(C)c1cc(NC(=O)Nc2ccc(-c3cn4c(n3)sc3cc(OCCN5CCOCC5)ccc34)cc2)no1 [Quizartinib] + O=C(c1cc(Cc2n[nH]c(=O)c3ccccc23)ccc1F)N1CCN(C(=O)C2CC2)CC1 [Olaparib] (partner 8 µM)
# Procedure, shortened: as §1
Cell Line,relative viability ([1]; first compound 0.001 µM),relative viability ([1]; first compound 0.003162 µM),relative viability ([1]; first compound 0.01 µM),relative viability ([1]; first compound 0.03162 µM),relative viability ([1]; first compound 0.1 µM),relative viability ([2]; first compound 0.001 µM),relative viability ([2]; first compound 0.003162 µM),relative viability ([2]; first compound 0.01 µM),relative viability ([2]; first compound 0.03162 µM),relative viability ([2]; first compound 0.1 µM),relative viability ([3]; first compound 0.001 µM),relative viability ([3]; first compound 0.003162 µM),relative viability ([3]; first compound 0.01 µM),relative viability ([3]; first compound 0.03162 µM),relative viability ([3]; first compound 0.1 µM),relative viability ([4]; first compound 0.001 µM),relative viability ([4]; first compound 0.003162 µM),relative viability ([4]; first compound 0.01 µM),relative viability ([4]; first compound 0.03162 µM),relative viability ([4]; first compound 0.1 µM)
H3255,0.776,0.713,0.7,0.946,0.774,0.264,0.238,0.212,0.28,0.241,0.59,0.58,0.508,0.584,0.544,0.516,0.552,0.565,0.525,0.57
NCI-H1755,0.858,0.979,0.956,0.973,0.969,0.909,0.98,1.1,1.07,1.04,0.583,0.536,0.569,0.626,0.48,0.832,0.809,0.946,0.948,0.855
IA-LM,0.774,0.738,0.885,0.812,0.736,0.983,0.718,0.86,–,0.719,–,–,–,–,–,0.908,0.796,0.851,0.75,0.74
NCI-H23,–,0.937,1.08,0.97,0.888,–,0.959,1.28,0.861,1.01,–,0.343,0.405,0.249,0.231,0.273,0.269,0.372,0.279,0.264
NCI-H661,0.747,0.903,0.684,0.791,0.878,0.493,0.457,0.436,0.468,0.691,0.298,0.364,0.352,0.359,0.355,0.727,0.712,0.751,0.733,0.723
PC-14,0.768,0.846,0.971,0.826,0.644,0.271,0.322,0.306,0.333,0.337,0.555,0.551,0.584,0.556,0.558,0.263,0.26,0.252,0.184,0.318
NCI-H647,0.91,1.08,0.71,0.999,1.29,0.966,1.1,1.12,0.97,0.985,0.267,0.258,0.284,0.329,0.301,0.622,0.507,0.669,0.499,0.585
NCI-H1792,0.783,0.947,1.01,0.793,0.952,0.796,0.853,0.969,0.866,0.932,–,–,–,–,–,0.443,0.381,0.54,0.483,0.312
SW 900,–,–,–,–,–,–,–,–,–,–,0.57,0.506,–,0.344,0.39,0.803,0.871,0.968,0.921,0.885
EKVX,0.892,0.938,1.01,1.13,1,0.188,0.223,0.204,0.202,0.407,0.176,0.323,0.347,0.369,0.334,–,0.821,0.886,0.904,1.01
COR-L23,0.965,0.908,1.14,0.902,0.889,1.03,0.856,1.14,0.613,0.928,0.175,0.178,0.159,0.116,0.139,0.34,0.356,0.319,0.274,0.247
NCI-H1355,1.07,1.28,1.09,1.25,1.28,0.979,0.992,1,0.914,1.06,0.495,0.542,0.51,0.442,0.433,0.659,0.737,0.761,0.748,0.679
NCI-H2085,0.981,0.994,1.1,0.952,0.982,0.733,0.769,0.851,0.809,0.742,0.679,0.752,0.816,0.614,0.45,0.707,0.748,0.789,0.7,0.72
A-427,0.911,0.952,1.06,1,1.01,0.714,0.938,1.04,0.998,0.986,–,0.204,0.191,0.204,0.189,0.736,0.719,0.687,0.586,0.711
LOU-NH91,0.481,0.509,0.538,0.433,0.513,0.724,0.806,0.804,0.522,0.785,0.472,0.693,0.462,0.649,0.668,0.87,0.885,0.931,0.838,1.01
CAL-12T,0.809,1.23,0.93,0.924,1.24,0.587,0.716,0.667,0.687,0.795,0.32,0.283,0.315,0.234,0.199,0.617,0.76,0.674,0.594,0.841
NCI-H520,0.448,0.549,0.736,0.532,0.462,0.649,0.766,0.828,0.85,0.591,0.347,0.448,0.444,0.393,0.385,–,0.308,0.367,0.352,0.29
LCLC-103H,0.871,1.01,0.994,1,1.12,–,–,–,–,–,0.391,0.47,0.441,0.491,0.522,0.691,0.718,0.789,0.769,0.819
NCI-H1651,0.801,0.938,1.08,0.888,0.993,0.718,0.831,0.781,0.274,0.821,0.604,0.679,0.645,0.351,0.5,0.163,0.174,0.192,0.186,0.177
NCI-H2347,0.757,1.14,0.968,0.959,1.23,0.604,0.923,0.94,1.03,1.1,0.547,0.419,0.531,0.511,0.521,0.458,0.518,0.701,0.57,0.608

Cell Line,relative viability ([1]; first compound 0.001 µM),relative viability ([1]; first compound 0.003162 µM),relative viability ([1]; first compound 0.01 µM),relative viability ([1]; first compound 0.03162 µM),relative viability ([1]; first compound 0.1 µM),relative viability ([2]; first compound 0.001 µM),relative viability ([2]; first compound 0.003162 µM),relative viability ([2]; first compound 0.01 µM),relative viability ([2]; first compound 0.03162 µM),relative viability ([2]; first compound 0.1 µM),relative viability ([3]; first compound 0.001 µM),relative viability ([3]; first compound 0.003162 µM),relative viability ([3]; first compound 0.01 µM),relative viability ([3]; first compound 0.03162 µM),relative viability ([3]; first compound 0.1 µM),relative viability ([4]; first compound 0.001 µM),relative viability ([4]; first compound 0.003162 µM),relative viability ([4]; first compound 0.01 µM),relative viability ([4]; first compound 0.03162 µM),relative viability ([4]; first compound 0.1 µM)
LC-2-ad,0.955,0.954,1.11,1.06,0.996,0.791,0.883,0.724,0.839,0.607,0.373,0.436,0.451,–,0.451,0.697,0.635,0.757,0.747,0.86
NCI-H3122,1.01,1,1.09,1.02,0.983,1.08,0.903,1.04,1.05,1.04,–,0.368,0.483,–,0.337,0.573,0.637,0.653,0.69,0.676
NCI-H1563,0.968,0.833,0.791,–,0.84,0.697,0.824,0.935,–,0.897,–,–,–,–,–,–,–,–,–,–
LK-2,–,–,–,–,–,0.839,0.854,1,0.723,0.761,0.133,–,0.145,0.17,0.142,0.536,0.772,0.685,0.583,0.644
NCI-H1944,–,–,–,–,–,0.768,0.868,0.707,0.792,0.721,0.291,0.264,0.267,0.263,0.278,0.442,0.374,0.396,0.425,0.385
ChaGo-K-1,0.693,1.16,1.06,–,1.28,–,–,–,–,–,0.235,0.234,0.209,0.205,0.197,–,0.415,0.463,0.45,0.447
NCI-H441,0.476,0.466,0.451,0.576,1.57,–,–,–,–,–,0.66,0.599,0.586,–,0.489,0.441,0.558,0.646,0.434,0.683
EBC-1,0.524,0.505,0.561,0.495,0.466,0.23,0.209,0.202,0.207,0.197,–,–,–,–,–,0.732,0.68,0.803,0.626,0.754
NCI-H522,–,–,–,–,–,–,–,–,–,–,0.571,0.585,0.585,0.559,0.569,0.61,0.764,0.716,0.6,0.783
NCI-H1623,–,–,–,–,–,–,–,–,–,–,0.392,0.469,0.449,0.441,0.511,–,–,–,–,–
NCI-H1703,0.418,0.269,0.16,0.18,0.256,1.18,0.432,0.379,0.216,0.315,–,–,–,–,–,0.488,0.306,0.2,0.166,0.307
NCI-H2342,–,–,–,–,–,–,–,–,–,–,0.625,0.582,0.575,0.498,0.457,0.415,0.474,0.51,0.388,0.395
A549,–,–,–,–,–,0.919,0.912,0.998,0.59,0.99,–,–,–,–,–,–,0.327,0.378,0.257,0.439
SK-MES-1,–,–,–,–,–,0.464,0.428,0.421,0.428,0.442,0.852,0.904,0.864,–,0.77,0.685,0.678,0.805,–,0.732
NCI-H358,–,–,–,–,–,0.349,0.516,0.412,–,0.39,0.0852,0.0998,0.115,0.102,0.0995,0.548,0.6,0.585,–,0.67
NCI-H1299,–,0.985,1.01,1.02,1.04,0.983,0.932,0.956,0.922,0.903,–,–,–,–,–,0.949,0.967,0.987,0.995,0.984
NCI-H1395,–,–,–,–,–,0.992,0.941,0.883,0.842,1.2,0.873,0.686,0.782,0.814,0.682,0.476,0.455,0.489,0.444,0.512
NCI-H1793,–,–,–,–,–,0.533,0.743,0.82,0.899,0.795,0.329,0.289,0.291,0.214,0.238,0.765,0.684,0.855,0.808,0.835
NCI-H2170,–,–,–,–,–,0.257,0.273,0.253,0.262,0.272,0.665,0.654,0.853,0.749,0.804,0.567,0.681,0.656,0.584,0.54
Calu-6,0.924,0.991,1.02,0.811,1.07,1.02,0.986,1.15,0.815,1.09,–,–,–,–,–,0.604,0.549,0.512,0.492,0.64
